In patent US11034661B2, “Substituted N′-hydroxycarbamimidoyl-1,2,5-oxadiazole compounds as indoleamine 2,3-dioxygenase IDO inhibitors” (Merck Sharp & Dohme Corp., priority 2017, dated 2021):

Legend:
[1] = molecular target: IDO1 in Hela cells stimulated with IFNγ (Homo sapiens (Human), UniProt P14902); assay: IDO1 Cellular Assay in Hela Cells Stimulated with IFNγ; type: cell-based; conditions: IFNγ 100 ng/mL, about 48 hours, fluorescence readout, read-out: IDO1 HELA Cell Assay, IC50
Method: IDO1 Cellular Assay in Hela Cells Stimulated with IFNγ
Hela cells were cultured in complete Hela culture medium (90% EMEM, 10% heat-inactivated fetal bovine serum) and expanded to about 1×10^9 cells. The cells were then collected and frozen down at 10×10^6 cells/vial in 1 mL frozen medium (90% complete Hela culture medium, 10% DMSO)
Compounds to be tested were serially diluted in ten 3-fold steps in DMSO starting from 10 mM DMSO stocks in Echo low volume plate(s). Compound dilutions or DMSO alone were then dispensed from the dilution plate(s) into Greiner black 384-well assay plate(s) (catalog #781086, 50 nL/well) using an Echo 550 acoustic liquid handler (Labcyte).
Frozen Hela cells were thawed and transferred into Hela assay medium (99% complete Hela culture medium, 1% Pen/Strep) with 20 mL medium/vial of cells. The cells were spun down at 250 g in a table top centrifuge for 5 min and suspended in same volume of Hela assay medium. The cells were then counted and adjusted to a density of 2×10^5 cells/ml in Hela assay medium. Sterile L-tryptophan were added to the cells with final concentration of 300 uM L-tryptophan. A small aliquot (2 mL/plate) of Hela cells were set aside and were not treated with IFNγ, to serve as the Max-E control. The rest of Hela cells were added with sterile IFNγ (Cat #285-IF, R & D systems) with a final concentration of 100 ng/mL.
Hela cells with and without IFNγ were dispensed to the respective wells of 384-well assay plates containing the compounds. The plates were incubated for about 48 hours at a 37° C., 5% CO2 incubator. Afterwards, 12 μL of 0.5 M methyl isonipecotate in dimethyl sulfoxide were added into each well and the plates were sealed and incubated at 37° C. without CO2 overnight. The plates were centrifuged for 1 min at 200×g. The resulting fluorescence was measured in a Spectramax plate reader (Molecular Devices) with a 400 nm excitation filter and a 510 nm emission filter.
The fluorescence intensity of each well was corrected for the background observed in wells with non-IFNγ-treated cells and was expressed as a fraction of the intensity observed in wells of IFNγ-treated cells and DMSO only. Potencies were calculated by linear least squares fit to the four parameter logistic IC50 equation.

HIS-tagged IDO1 protein = HIS-tagged IDO1 protein (Homo sapiens (Human), UniProt P14902); assay: IDO1 Enzyme Assay; type: biochemical; conditions: recombinant IDO1 40 nM, tryptophan substrate, fluorescence readout
Method: Biological Assays IDO1 Enzyme Assay
Compounds to be tested were serially diluted in ten 3-fold steps in DMSO starting from 10 mM DMSO stocks. Compound dilutions or DMSO alone were then dispensed from the dilution plate into a Greiner black 384-well assay plate (catalog #781086) using an Echo 555 acoustic liquid handler (Labcyte).
HIS-tagged IDO1 protein was recombinantly expressed in Escherichia coli using ZYP5052 autoinduction media supplemented with 500 μM delta aminolevulinic acid for 48 hours at 16 degrees Celsius. IDO1 protein was purified using Ni^2+-affinity resin and size exclusion chromatography. Purified protein was then diluted in assay buffer (50 mM Tris pH 7.0, 1% glycerol, 20 μM methylene blue, 0.05% Tween-20, 20 mM sodium ascorbate, 100 units/mL catalase to obtain a final IDO1 concentration of 40 nM. IDO1 solution […] or buffer alone […] was dispensed to wells of the assay plate using a BioRAPTR liquid dispenser (Beckman Coulter). Assay plates containing compound and IDO1 enzyme were incubated at room temperature for 30 minutes. Afterwards, 10 μL of 400 μM tryptophan in assay buffer were added to each well of the assay plate using a BioRAPTR liquid dispenser. Plates were incubated at room temperature for 60 minutes and reactions were quenched by addition of 10 μL of 0.5 M methyl isonipecotate in dimethyl sulfoxide. Plates were sealed and incubated at 37 degrees Celsius for 4 hours or 50 degrees Celsius for 2 hours. The plates are allowed to cool and then centrifuged for 1 minute at 1000×g. The resulting fluorescence was measured in an Envision plate reader (Perkin Elmer) with a 400/25 nm excitation filter and an 510/20 nm emission filter.
Potencies were calculated by linear least squares fit to the four parameter logistic IC50 equation.

HIS-tagged IDO1 protein, sequence (P14902 whole entry): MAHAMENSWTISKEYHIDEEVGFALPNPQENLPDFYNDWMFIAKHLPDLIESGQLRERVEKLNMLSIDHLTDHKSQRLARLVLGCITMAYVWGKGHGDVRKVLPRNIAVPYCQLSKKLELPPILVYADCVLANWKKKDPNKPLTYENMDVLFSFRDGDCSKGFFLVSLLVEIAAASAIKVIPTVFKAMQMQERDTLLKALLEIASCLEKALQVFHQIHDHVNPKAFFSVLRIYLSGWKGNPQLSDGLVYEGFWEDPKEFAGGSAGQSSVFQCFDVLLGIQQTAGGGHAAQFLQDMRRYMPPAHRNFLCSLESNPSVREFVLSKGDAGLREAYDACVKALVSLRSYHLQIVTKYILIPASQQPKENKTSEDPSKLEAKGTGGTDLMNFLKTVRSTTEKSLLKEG
IDO1 in Hela cells stimulated with IFNγ, sequence (P14902 whole entry): as above

Molecule `O=C(CO)N1CC[C@@H](Oc2nonc2/C(=N/O)N[C@H]2Cc3ccc(F)cc32)C1` [Example 60, N-[(7S)-4-fluorobicyclo[4.2.0]octa-1,3,5-trien-7-yl]-N′-hydroxy-4-{[(3R)-1-(hydroxyacetyl)pyrrolidin-3-yl]oxy}-1,2,5-oxadiazole-3-carboximidamide] has an IC50 [1] of 1440 nM and an IC50 (HIS-tagged IDO1 protein) of 1390 nM.
In the case of `C[C@@H](O)C(=O)N1CC(Oc2nonc2/C(=N/O)N[C@H]2Cc3ccc(F)cc32)C1` [Example 61, N-((S)-4-fluorobicyclo[4.2.0]octa-1(6),2,4-trien-7-yl)-N′-hydroxy-4-((1-((R)-2-hydroxypropanoyl)azetidin-3-yl)oxy)-1,2,5-oxadiazole-3-carboximidamide], the IC50 [1] is reported as 99 nM and the IC50 (HIS-tagged IDO1 protein) is reported as 89 nM.
`NS(=O)(=O)N1CC(Oc2nonc2/C(=N/O)N[C@H]2Cc3ccc(F)cc32)C1` [Example 62, (S,Z)-N-(4-fluorobicyclo[4.2.0]octa-1(6),2,4-trien-7-yl)-N′-hydroxy-4-((1-sulfamoylazetidin-3-yl)oxy)-1,2,5-oxadiazole-3-carboximidamide] gave an IC50 [1] of 44 nM and an IC50 (HIS-tagged IDO1 protein) of 24 nM.
In the case of `NC(=O)N1CC(Oc2nonc2/C(=N/O)N[C@H]2Cc3ccc(F)cc32)C1` [Example 63, (S,Z)-3-((4-(N-(4-fluorobicyclo[4.2.0]octa-1(6),2,4-trien-7-yl)-N′-hydroxycarbamimidoyl)-1,2,5-oxadiazol-3-yl)oxy)azetidine-1-carboxamide], the IC50 [1] is reported as 36 nM and the IC50 (HIS-tagged IDO1 protein) is reported as 20 nM.
With `NS(=O)(=O)NCCCOc1nonc1/C(=N/O)N[C@H]1Cc2ccc(F)cc21` [Example 64, (S,Z)-N-(4-fluorobicyclo[4.2.0]octa-1(6),2,4-trien-7-yl)-N′-hydroxy-4-(3-(sulfamoylamino)propoxy)-1,2,5-oxadiazole-3-carboximidamide] the IC50 [1] was 66 nM and the IC50 (HIS-tagged IDO1 protein) was 37 nM.
`O=C(N[C@H]1C[C@@H](Oc2nonc2/C(=N/O)N[C@H]2Cc3ccc(F)cc32)C1)C1(O)CC1` [Example 65, N-((1R,3s)-3-((4-((Z)-N-((S)-4-fluorobicyclo[4.2.0]octa-1(6),2,4-trien-7-yl)-N′-hydroxycarbamimidoyl)-1,2,5-oxadiazol-3-yl)oxy)cyclobutyl)-1-hydroxycyclopropanecarboxamide] showed an IC50 [1] of 280 nM and an IC50 (HIS-tagged IDO1 protein) of 167 nM.
`CC(C)(O)C(=O)N[C@H]1C[C@@H](Oc2nonc2/C(=N/O)N[C@H]2Cc3ccc(F)cc32)C1` [Example 66, N-((1R,3s)-3-((4-((Z)-N-((S)-4-fluorobicyclo[4.2.0]octa-1(6),2,4-trien-7-yl)-N′-hydroxycarbamimidoyl)-1,2,5-oxadiazol-3-yl)oxy)cyclobutyl)-2-hydroxy-2-methylpropanamide] was tested, and the IC50 [1] was 287 nM and the IC50 (HIS-tagged IDO1 protein) was 167 nM.
`C[C@@H](CNS(N)(=O)=O)Oc1nonc1/C(=N/O)N[C@H]1Cc2ccc(F)cc21` [Example 67, (Z)-N-((S)-4-fluorobicyclo[4.2.0]octa-1(6),2,4-trien-7-yl)-N′-hydroxy-4-(((S)-1-(sulfamoylamino)propan-2-yl)oxy)-1,2,5-oxadiazole-3-carboximidamide] gave an IC50 [1] of 848 nM and an IC50 (HIS-tagged IDO1 protein) of 1550 nM.
